Measurements taken from ChEMBL document CHEMBL6083267, “Rational fragment-based design of compounds targeting the PWWP domain of the HRP family” (Eur J Med Chem, 2024).

Molecular target: PC4 and SFRS1-interacting protein (Homo sapiens, UniProt O75475)
Sequence (O75475 whole entry): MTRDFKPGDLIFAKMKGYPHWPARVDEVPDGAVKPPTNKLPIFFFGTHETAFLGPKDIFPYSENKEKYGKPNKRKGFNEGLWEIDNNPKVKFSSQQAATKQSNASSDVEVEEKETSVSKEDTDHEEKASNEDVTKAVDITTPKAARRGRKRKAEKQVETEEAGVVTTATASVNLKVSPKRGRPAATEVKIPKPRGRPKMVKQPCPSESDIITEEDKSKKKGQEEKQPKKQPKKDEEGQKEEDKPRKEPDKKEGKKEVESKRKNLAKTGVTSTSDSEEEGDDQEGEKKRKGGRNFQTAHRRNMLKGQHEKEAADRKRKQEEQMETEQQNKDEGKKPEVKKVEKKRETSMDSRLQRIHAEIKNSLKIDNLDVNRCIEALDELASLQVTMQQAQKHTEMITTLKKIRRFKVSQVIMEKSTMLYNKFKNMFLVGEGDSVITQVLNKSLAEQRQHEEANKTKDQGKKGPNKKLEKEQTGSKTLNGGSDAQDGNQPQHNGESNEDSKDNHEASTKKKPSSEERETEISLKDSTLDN
Description: Binding affinity to N-terminal His10-tagged LEDGF/P75 PWWP domain (1 to 110 residues) (unknown origin) expressed in Escherichia coli assessed as dissociation constant incubated for overnight by NMR analysis

| Structure (SMILES) | Kd [µM] |
| --- | --- |
| NCc1cncc(Br)c1 | 216 |
| CCS(=O)(=O)c1ccc(C2CCCCN2)cc1 (stereo unspecified) | 526 |
| CCS(=O)(=O)c1ccccc1NC(=O)COc1cccc(CC(=O)O)c1 | 590 |
| NC(=O)CCN1CCCC1c1ccccc1 (stereo unspecified) | 363 |
| CCS(=O)(=O)c1ccccc1NC(=O)CCl | 700 |
| Nc1ccc(CNCc2cncc(Br)c2)cc1 | 147 |
